Measured values published in US9763445B2, “Safened herbicidal compositions comprising a pyridine carboxylic acid herbicide” (Dow AgroSciences, LLC, priority 2014, dated 2017).

Experiments:
[1] = system: prickly lettuce (LACSE); experiment: Postemergence greenhouse trial, % visual injury on prickly lettuce; format: in vivo, Lactuca serriola
Experimental: (§1) Seeds of the desired test plant species were planted in Sun Gro MetroMix® 306 planting mixture, which typically has a pH of 6.0 to 6.8 and an organic matter content of about 30 percent, in plastic pots with a surface area of 103.2 square centimeters (cm^2). When required to ensure good germination and healthy plants, a fungicide treatment and/or other chemical or physical treatment was applied. The plants were grown for 7-36 days (d) in a greenhouse with an approximate 14-hour (h) photoperiod which was maintained at about 23° C. during the day and 22° C. during the night. Nutrients and water were added on a regular basis and supplemental lighting was provided with overhead metal halide 1000-Watt lamps as necessary. The plants were employed for testing when they reached the second or third true leaf stage.
(§2) Weighed amounts of technical material were dissolved in a volume of 97:3 volume per volume (v/v) acetone/dimethyl sulfoxide (DMSO) to stock solutions. […] The concentrated stock solutions were diluted with an aqueous mixture of 1.5% v/v of Agri-dex crop oil concentrate to provide the appropriate application rates. Compound requirements are based upon a 12 milliliter (mL) application volume at a rate of 187 liters per hectare (L/ha). Stocks solutions of the safeners were prepared following the same procedure. Spray solutions of the safeners and experimental compound mixtures were prepared by adding the stock solutions to the appropriate amount of dilution solution to form a 12 mL spray solution in two-way combinations. Formulated compounds were applied to the plant material with an overhead Mandel track sprayer equipped with 8002E nozzles calibrated to deliver 187 L/ha over an application area of 0.503 square meters (m^2) at a spray height of 18 inches (43 centimeters (cm)) above average plant canopy. Control plants were sprayed in the same manner with the solvent blank. All herbicide application (component a) rates are in g ae/ha and all safener (component b) rates are in g ai/ha.
(§3) The treated plants and control plants were placed in a greenhouse as described above and watered by sub-irrigation to prevent wash-off of the test compounds. After 20-22 d, the condition of the test plants as compared with that of the control plants was determined visually and scored on a scale of 0 to 100 percent where 0 corresponds to no injury and 100 corresponds to complete kill. Colby's equation was used to determine the herbicidal effects expected from the mixtures. […]

[2] = system: chickweed (STEME); experiment: Postemergence greenhouse trial, % visual injury on chickweed; format: in vivo, Stellaria media; settings: alone, 35 g/ha
Experimental: as §1, §2
(§4) The treated plants and control plants were placed in a greenhouse as described above and watered by sub-irrigation to prevent wash-off of the test compounds. After 20-22 d, the condition of the test plants as compared with that of the control plants was determined visually and scored on a scale of 0 to 100 percent where 0 corresponds to no injury and 100 corresponds to complete kill. The condition of the test plants was compared with that of the control plants as determined visually and scored on a scale of 0 to 100 percent, where 0 corresponds to no injury and 100 corresponds to complete kill. Colby's equation was used to determine the herbicidal effects expected from the mixtures.
(§5) The safener cloquintocet-mexyl was combined with compound 1, compound 2, compound 4, compound 5, and compound 6, and applied to corn/maize (ZEAMX) and spring wheat (TRZAS) and the phytotoxicity of the herbicidal compositions was measured. In addition, the efficacy of the herbicidal composition on velvetleaf (ABUTH, Abutilon theophrasti), pigweed (AMARE, Amaranthus retroflexus), winter rape (BRSNW, Brassica napus), lambsquarters (CHEAL, Chenopodium album), thistle (CIRAR, Cirsium arvense), nutsedge (CYPES, Cyperus esculentus), poinsettia (EPHHL, Euphorbia heterophylla), wild buckwheat (POLCO, Polygonum convolvulus), giant foxtail (SETFA, Setaria faberi), and chickweed (STEME, Stellaria media) was evaluated. […]

[3] = system: nutsedge (CYPES); experiment: Postemergence greenhouse trial, % visual injury on nutsedge; format: in vivo, Cyperus esculentus; settings: for % visual injury, observed (Ob): CYPES
Experimental: as §1, §2, §4, §5
The safener cloquintocet-acid and a number of agriculturally acceptable esters and salts (-mexyl, -dimethylammonium salt and -triethylammonium salt) were combined in varying ratios with compound 1 and applied to spring wheat (TRZAS), winter wheat (TRZAW), and spring barley (HORVS), and the phytotoxicity of the herbicidal compositions was measured. […]

[4] = system: wild buckwheat (POLCO); experiment: Postemergence greenhouse trial, % visual injury on wild buckwheat; format: in vivo, Polygonum convolvulus; settings: for % visual injury, observed (Ob): POLCO
Experimental: as §1, §2, §4
The safener cloquintocet-mexyl was combined with compound 1, compound 2, compound 4, compound 5, and compound 6, and applied to corn/maize (ZEAMX) and spring wheat (TRZAS) and the phytotoxicity of the herbicidal compositions was measured. In addition, the efficacy of the herbicidal composition on velvetleaf (ABUTH, Abutilon theophrasti), pigweed (AMARE, Amaranthus retroflexus), winter rape (BRSNW, Brassica napus), lambsquarters (CHEAL, Chenopodium album), thistle (CIRAR, Cirsium arvense), nutsedge (CYPES, Cyperus esculentus), poinsettia (EPHHL, Euphorbia heterophylla), wild buckwheat (POLCO, Polygonum convolvulus), giant foxtail (SETFA, Setaria faberi), and chickweed (STEME, Stellaria media) was evaluated.
(§6) The safener cloquintocet-mexyl was combined with compound 1, compound 2, compound 3, compound 7, compound 8, compound 9, compound 10, compound 11, compound 12, compound 13, compound 14, compound 15, compound 16, compound 17, compound 18, compound 19, and compound 20, and applied to spring wheat (TRZAS), winter wheat (TRZAW), and spring barley (HORVS) and the phytotoxicity of the herbicidal compositions was measured. […]

[5] = system: winter wheat (TRZAW); experiment: Postemergence greenhouse trial, % visual injury on winter wheat; format: in vivo, Triticum aestivum
Experimental: as §1, §2, §4, §6

[6] = system: wild chamomile (MATCH); experiment: Postemergence greenhouse trial, % visual injury on wild chamomile; format: in vivo, Matricaria chamomilla; settings: CQC-m 0
Experimental: as §1, §2, §3

[7] = system: cleavers (GALAP); experiment: Postemergence greenhouse trial, % visual injury on cleavers; format: in vivo, Galium aparine
Experimental: as §1, §2, §4, §6

[8] = compound 4.375 g/ha, CQC-m 0 g/ha
[9] = compound 8.75 g/ha, CQC-m 0 g/ha
[10] = compound 17.5 g/ha, CQC-m 0 g/ha

## Nc1c(F)c(-c2ccc3cc[nH]c3c2F)nc(C(=O)O)c1Cl [compound 1]
[1]; alone, 4.375 g/ha
  % visual injury, Ob: 70%
[1]; alone, 8.75 g/ha
  % visual injury, Ob: 93%
[1]; alone, 17.5 g/ha
  % visual injury, Ob: 100%
[1]; alone, 35 g/ha
  % visual injury, Ob: 100%
[1]; alone, 70 g/ha
  % visual injury, Ob: 100%
[2]
  % visual injury, Ob: 100%
[3]; compound 1 alone 20 g/ha
  % visual injury, observed (Ob): 35%
[3]; compound 1 alone 40 g/ha
  % visual injury, observed (Ob): 35%
[3]; alone, 35 g/ha
  % visual injury, Ob: 80%
[4]; alone, 35 g/ha
  % visual injury, Ob: 99%
[5]; TRZAW, compound 1 alone 20 g/ha
  % visual injury, observed (Ob): 13%
[5]; TRZAW, compound 1 alone 40 g/ha
  % visual injury, observed (Ob): 15%
[5]; alone, 35 g/ha
  % visual injury, Ob: 40%
[5]; alone, 70 g/ha
  % visual injury, Ob: 50%

## COC(=O)c1nc(-c2ccc3cc[nH]c3c2F)c(F)c(N)c1Cl [compound 8]
[4]; compound 8 4.380 + CQC-m 0 g/ha
  % visual injury, observed (Ob): 85%
[4]; compound 8 8.75 + CQC-m 0 g/ha
  % visual injury, observed (Ob): 97%
[4]; compound 8 17.5 + CQC-m 0 g/ha
  % visual injury, observed (Ob): 93%
[4]; compound 8 35 + CQC-m 0 g/ha
  % visual injury, observed (Ob): 100%
[4]; compound 8 70 + CQC-m 0 g/ha
  % visual injury, observed (Ob): 100%

## CO/C=N/c1c(F)c(-c2ccc3cc[nH]c3c2F)nc(C(=O)OC)c1Cl [compound 10]
[1]; LACSE, compound 4.380 g/ha, CQC-m 0
  % visual injury, Ob: 95%
[1]; LACSE, compound 8.75 g/ha, CQC-m 0
  % visual injury, Ob: 100%
[1]; LACSE, compound 17.5 g/ha, CQC-m 0
  % visual injury, Ob: 100%
[1]; LACSE, compound 35 g/ha, CQC-m 0
  % visual injury, Ob: 100%
[1]; LACSE, compound 70 g/ha, CQC-m 0
  % visual injury, Ob: 100%

## COC(=O)c1nc(-c2ccc3cc[nH]c3c2F)c(F)c(N)c1OC [compound 12]
[6]; compound 4.380 g/ha
  % visual injury, Ob: 5%
[6]; compound 8.75 g/ha
  % visual injury, Ob: 3%
[6]; compound 17.5 g/ha
  % visual injury, Ob: 7%
[6]; compound 35 g/ha
  % visual injury, Ob: 10%
[6]; compound 70 g/ha
  % visual injury, Ob: 13%

## COc1c(C(=O)O)nc(-c2ccc3cc[nH]c3c2F)c(F)c1N [compound 13]
[1]; LACSE, compound 4.375 g/ha, CQC-m 0 g/ha
  % visual injury, Ob: 85%
[1]; LACSE, compound 8.75 g/ha, CQC-m 0 g/ha
  % visual injury, Ob: 93%
[1]; LACSE, compound 17.5 g/ha, CQC-m 0 g/ha
  % visual injury, Ob: 95%
[1]; LACSE, compound 35 g/ha, CQC-m 0 g/ha
  % visual injury, Ob: 95%
[1]; LACSE, compound 70 g/ha, CQC-m 0 g/ha
  % visual injury, Ob: 100%
[7]; [8]
  % visual injury, Ob: 40%
[7]; [9]
  % visual injury, Ob: 70%
[7]; [10]
  % visual injury, Ob: 80%
[7]; compound 35 g/ha, CQC-m 0 g/ha
  % visual injury, Ob: 100%
[7]; compound 70 g/ha, CQC-m 0 g/ha
  % visual injury, Ob: 100%
[5]; TRZAW, compound 35 g/ha, CQC-m 0 g/ha
  % visual injury, Ob: 70%
[5]; TRZAW, compound 70 g/ha, CQC-m 0 g/ha
  % visual injury, Ob: 80%

## Nc1cc(-c2ccc3cc[nH]c3c2F)nc(C(=O)O)c1Cl [compound 15]
[7]; [8]
  % visual injury, Ob: 85%
[7]; [9]
  % visual injury, Ob: 85%
[7]; [10]
  % visual injury, Ob: 93%
[7]; compound 35 g/ha, CQC-m 0 g/ha
  % visual injury, Ob: 93%
[7]; compound 70 g/ha, CQC-m 0 g/ha
  % visual injury, Ob: 90%

## Nc1c(F)c(-c2ccc3scnc3c2)nc(C(=O)O)c1Cl [compound 17]
[7]; 4.375 g/ha, applied alone
  % visual injury, Ob: 50%
[7]; 8.75 g/ha, applied alone
  % visual injury, Ob: 60%
[7]; 17.5 g/ha, applied alone
  % visual injury, Ob: 70%
[7]; 35 g/ha, applied alone
  % visual injury, Ob: 90%
[7]; 70 g/ha, applied alone
  % visual injury, Ob: 90%
